According to ChEMBL document CHEMBL3580540, “N1-linked melatonin dimers as bivalent ligands targeting dimeric melatonin receptors” (Medchemcomm, 2014):

Key:
Assay type in all cases: cell-based
[1] = Displacement of 2-[125I]-iodomelatonin from human MT1 receptor expressed in CHO cells by Gamma counting
[2] = Displacement of 2-[125I]-iodomelatonin from human MT2 receptor expressed in CHO cells by Gamma counting
HEK-293T [3] = assay: Binding affinity to Rluc-tagged MT1/YFP-tagged MT2 (unknown origin) transfected in HEK293T cells assessed as bioluminescence resonance energy transfer ratio at 10 uM after 10 mins by lumino/fluorometer (reference value: 0.254 +/- 0.035); settings: Homo sapiens
HEK-293T [4] = assay: Binding affinity to Rluc-tagged MT2/YFP-tagged MT1 (unknown origin) transfected in HEK293T cells assessed as bioluminescence resonance energy transfer ratio at 10 uM after 10 mins by lumino/fluorometer (reference value: 2.300 +/- 0.777); settings: Homo sapiens
HEK-293T [5] = assay: Binding affinity to Rluc-tagged MT2/YFP-tagged MT2 (unknown origin) transfected in HEK293T cells assessed as bioluminescence resonance energy transfer ratio at 10 uM after 10 mins by lumino/fluorometer (reference value: 1.468 +/- 0.560); settings: Homo sapiens
HEK-293T [6] = assay: Binding affinity to Rluc-tagged MT1/YFP-tagged MT1 (unknown origin) transfected in HEK293T cells assessed as bioluminescence resonance energy transfer ratio at 10 uM after 10 mins by lumino/fluorometer (reference value: 0.092 +/- 0.007); settings: Homo sapiens

Row | SMILES | pKi [1] | pKi [2] | Ratio (HEK-293T [3]) | Ratio (HEK-293T [4]) | Ratio (HEK-293T [5]) | Ratio (HEK-293T [6])
1 | COc1ccc2c(c1)c(CCNC(C)=O)cn2CC(=O)NCCCCCCCCCNC(=O)Cn1cc(CCNC(C)=O)c2cc(OC)ccc21 | 4.83 | 4.93 |  |  |  | 
2 | COc1ccc2c(c1)c(CCNC(C)=O)cn2CCCCC(=O)NCCCCCCNC(=O)CCCCn1cc(CCNC(C)=O)c2cc(OC)ccc21 | 5.64 | 5.9 |  |  |  | 
3 | COc1ccc2c(c1)c(CCNC(C)=O)cn2CCCCC(=O)NCCCCCCCCCCCNC(=O)CCCCn1cc(CCNC(C)=O)c2cc(OC)ccc21 | 6.11 | 6.54 | 0.217 | 10.1 | 0.901 | 0.078
4 | CCCCCCNC(=O)CCCCn1cc(CCNC(C)=O)c2cc(OC)ccc21 | 5.79 | 6.41 |  |  |  | 
5 | COc1ccc2c(c1)c(CCNC(C)=O)cn2CC(=O)NCCCCCCCCCCCNC(=O)Cn1cc(CCNC(C)=O)c2cc(OC)ccc21 | 5.12 | 6.53 |  |  |  | 
6 | COc1ccc2c(c1)c(CCNC(C)=O)cn2CCCCC(=O)NCCCCCCCCNC(=O)CCCCn1cc(CCNC(C)=O)c2cc(OC)ccc21 | 6.17 | 6.74 |  |  |  | 
7 | COc1ccc2c(c1)c(CCNC(C)=O)cn2CC(=O)NCCCCCCCCCCCCNC(=O)Cn1cc(CCNC(C)=O)c2cc(OC)ccc21 | 6.47 | 7.02 |  |  |  | 
8 | COc1ccc2c(c1)c(CCNC(C)=O)cn2CCCCC(=O)NCCCCCCCCCNC(=O)CCCCn1cc(CCNC(C)=O)c2cc(OC)ccc21 | 6.23 | 6.79 |  |  |  | 
9 | COc1ccc2c(c1)c(CCNC(C)=O)cn2CC(=O)NCCCCCCCCCCNC(=O)Cn1cc(CCNC(C)=O)c2cc(OC)ccc21 | 6.37 | 7.34 |  |  |  | 
10 | COc1ccc2c(c1)c(CCNC(C)=O)cn2CCCCC(=O)NCCCCCCCCCCNC(=O)CCCCn1cc(CCNC(C)=O)c2cc(OC)ccc21 | 6.33 | 6.62 | 0.223 | 9.28 | 1.39 | 0.098
11 | COc1ccc2c(c1)c(CCNC(C)=O)cn2CCCCC(=O)NCCCCCCCNC(=O)CCCCn1cc(CCNC(C)=O)c2cc(OC)ccc21 | 6.24 | 5.93 |  |  |  | 
12 | COc1ccc2c(c1)c(CCNC(C)=O)cn2CCCCC(=O)NCCCCCCCCCCCCNC(=O)CCCCn1cc(CCNC(C)=O)c2cc(OC)ccc21 | 6.08 | 6.67 | 0.2 | 6.81 | 1.15 | 0.062
